The source of these data is publication PMC5890689 (RSC Advances, 2018).

Where two headings read alike, the source gives them in different places.

The test system of assay [1] is A549 (lung cancer). To be noted: read-out: GI50 A549; SRB assay; cited from earlier work.
Assay [2] deals with KB-vin (vincristine-resistant KB subline). To be noted: SRB assay; cited from earlier work.
For assay [3], the system named is KB (nasopharyngeal carcinoma). To be noted: SRB assay; cited from earlier work.
Assay [4] has as its system A549 (lung cancer). As to the kind of experiment: SRB assay, A549. As to conditions: Homo sapiens, A549, 72 h, read-out: GI50 A549.
For assay [5], the system named is KB (nasopharyngeal carcinoma). In words: SRB assay, KB. To be noted: SRB assay, 3 days, mean ± SD of three.
Assay [6] deals with KB-vin (vincristine-resistant KB subline). As to the kind of experiment: SRB assay, KB-vin. To be noted: 3 days, mean ± SD of three.
In assay [7] the test system is MCF-7 (Michigan Cancer Foundation-7). In words: SRB assay, MCF-7. To be noted: Homo sapiens, MCF7, 72 h, read-out: GI50 MCF-7.
For assay [8], the system named is MDA-MB-231 (human breast carcinoma cell line). In words: SRB assay, MDA-MB-231. As to conditions: MDA-MB-231, 72 h, read-out: GI50 MDA-MB-231.

As for `CN1CC[C@H](c2c(O)cc(O)c3c(=O)cc(-c4ccccc4Cl)oc23)[C@H](O)C1` [FVP, Flavopiridol], the GI50 in the assay with A549 (lung cancer) [1] was 140 ± 10 nM. Moreover, the “GI50 KB-vin” value in assay [2] was 180 ± 10 nM. Further, the “GI50 KB” value in assay [3] is 160 ± 10 nM.
In the case of `CC(=O)O[C@H]1C(=O)[C@@]2(C)[C@H]([C@H](OC(=O)c3ccccc3)[C@]3(O)C[C@H](OC(=O)[C@H](O)[C@@H](NC(=O)c4ccccc4)c4ccccc4)C(C)=C1C3(C)C)[C@]1(OC(C)=O)CO[C@@H]1C[C@@H]2O` [Paclitaxel, reference compound], the GI50 with A549 (lung cancer) [4] came out at 5.98 ± 0.4 nM; in assay [7], 8.78 ± 0.79 nM; in assay [8], 7.76 ± 0.39 nM. Also, the “GI50 KB” value in assay [5] was 4.94 ± 0.21 nM. Further, the “GI50 KB-vin” value in assay [6] stood at 1518.36 ± 141.54 nM.
